56 compounds from patent US7994204B2, “Binding inhibitor of sphingosine-1-phosphate” (Taisho Pharmaceutical Co., Ltd, priority 2006, dated 2011) can be followed below.

The target in one test is T1, human Edg-1 (S1P1) (Homo sapiens, UniProt P21453).
T1 construct: expressed in transfected cells; host or cells: HEK-293
T1 sequence (P21453 whole entry): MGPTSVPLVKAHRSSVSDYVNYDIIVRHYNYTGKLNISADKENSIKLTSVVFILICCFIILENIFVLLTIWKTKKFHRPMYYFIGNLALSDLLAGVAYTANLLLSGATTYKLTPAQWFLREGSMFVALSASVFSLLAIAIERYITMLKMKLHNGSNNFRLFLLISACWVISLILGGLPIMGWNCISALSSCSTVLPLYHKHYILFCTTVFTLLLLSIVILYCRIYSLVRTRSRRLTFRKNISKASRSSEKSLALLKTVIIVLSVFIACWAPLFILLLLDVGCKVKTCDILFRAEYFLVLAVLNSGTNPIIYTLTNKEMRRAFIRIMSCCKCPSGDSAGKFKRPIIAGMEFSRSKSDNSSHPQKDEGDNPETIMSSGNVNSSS
Briefly: S1P1 binding inhibition test (membrane, [33P]-S1P). The conditions noted are these: compound 10 μM; [33P]-S1P 0.1 nM; human Edg-1 (S1P1) HEK-293 membrane fraction; read-out: Binding test (membrane) % inhibition (10 μM). As for the experimental part:
The membrane fraction was obtained by treating the cells with a solubilizing buffer (1 mM Tris/HCl, pH 7.2) for 10 minutes on ice, centrifuging at 1000×g for 5 minutes to remove insoluble fractions, and then centrifuging at 40000×g for 30 minutes at 4° C. The resulting membrane fraction was dissolved in a binding buffer (20 mM Tris-HCl, pH 7.4, 100 mM NaCl, 15 mM NaF, 2 mM deoxypyridoxine, 4 mg/mL fatty acid-free BSA), and then [^33P]-S1P (manufactured by ARC, final concentration 0.1 nM) and a DMSO solution (final concentration of the compound 10^−5 M, final concentration of DMSO 0.1%) of the test compound were added. Thereafter, the mixture was stirred and then treated for one hour at 30° C. Using a harvester, the membrane fraction was harvested onto unifilter-96 GF/C filter (manufactured by Perkin Elmer), washing was carried out four times with the binding buffer, and the filter was dried. Twenty five μL Microscint 0 (manufactured by Perkin Elmer) was added, and radioactivity was measured using Top Count NXT (manufactured by Packard) to calculate the amount (A) of [^33P]-S1P bound to the membrane fraction at the time when the compound was added.
The same procedure was carried out in the absence of the test compound, and the amount (B) of [^33P]-S1P bound was calculated. Further, the same procedure was carried out in the absence of the test compound by use of HEK-293 cells to which no Edg-1 (S1P1) gene was introduced, and the background amount (C) of [^33P]-S1P bound was calculated.
Inhibition rate (%)=[1−(A−C)/(B−C)]×100.
Moreover, the concentration required for a test compound to produce 50% inhibition of the binding caused in the absence of the test compound was also calculated (IC50). The above membrane system binding test was performed in the presence of a test compound at various concentrations to calculate the inhibition rate of Edg-1(S1P1) binding at each concentration according to the above equation, followed by calculating an IC50 value for each compound with data analysis software, Origin (Lightstone Corp., Japan).
By inhibition is commonly meant the relative decrease from the control value, in per cent. Consider `CCn1c(C(C)NS(=O)(=O)c2cccc(Cl)c2)cnc1Oc1ccc(C)cc1` (stereo not shown) [Compound 84], for which the inhibition at 10 µM is 72.4%.

With `CCn1c(C(C)NS(=O)(=O)c2cc(F)cc(Cl)c2C)cnc1Oc1ccc(C)cc1` (stereo not shown) [Compound 86], the inhibition at 10 µM stood at 74.4%.

With `CCc1cc(Br)ccc1S(=O)(=O)NC(C)c1cnc(Oc2ccc(C)cc2)n1CC` (stereo not shown) [Compound 87], the inhibition at 10 µM was determined as 65.6%.

As for `CCn1c(C(C)NS(=O)(=O)c2ccc(Br)cc2C)cnc1Oc1ccc(C)cc1` (stereo not shown) [Compound 88], the inhibition at 10 µM was 74.2%.

For `CCn1c(C(C)NS(=O)(=O)c2ccc(C#N)cc2Cl)cnc1Oc1ccc(C)cc1` (stereo not shown) [Compound 89], the inhibition at 10 µM turned out to be 71.8%.

Regarding `CCn1c(C(C)NS(=O)(=O)c2ccc(F)c(F)c2F)cnc1Oc1ccc(C)cc1` (stereo not shown) [Compound 90], the inhibition at 10 µM stood at 78.6%.

For the compound `CCn1c(C(C)NS(=O)(=O)c2cc(F)c(F)cc2Cl)cnc1Oc1ccc(C)cc1` (stereo not shown) [Compound 93], the inhibition at 10 µM was found to be 75.2%.

Consider `CCn1c(C(C)NS(=O)(=O)c2ccc(F)c(F)c2)cnc1Oc1ccc(C)cc1` (stereo not shown) [Compound 94], for which the inhibition at 10 µM is 86.5%.

Take `CCn1c(C(C)NS(=O)(=O)c2ccc(Br)cc2F)cnc1Oc1ccc(C)cc1` (stereo not shown) [Compound 95]: the inhibition at 10 µM worked out at 80.1%.

Turning to `CCn1c(C(C)NS(=O)(=O)c2cc(F)c(Cl)cc2F)cnc1Oc1ccc(C)cc1` (stereo not shown) [Compound 96], the inhibition at 10 µM was determined as 80.4%.

As to `CCn1c(C(C)NS(=O)(=O)c2cc(C)c(Cl)cc2Cl)cnc1Oc1ccc(C)cc1` (stereo not shown) [Compound 101], the inhibition at 10 µM worked out at 107%.

`CCn1c(C(C)NS(=O)(=O)c2c(F)c(Br)cc(F)c2Br)cnc1Oc1ccc(C)cc1` (stereo not shown) [Compound 102]: the inhibition at 10 µM worked out at 78.2%.

For `CCn1c(C(C)NS(=O)(=O)c2c(F)cccc2F)cnc1Oc1ccc(C)cc1` (stereo not shown) [Compound 103], the inhibition at 10 µM amounted to 53%.

As for `CCn1c(C(C)NS(=O)(=O)c2cc(C(F)(F)F)ccc2Cl)cnc1Oc1ccc(C)cc1` (stereo not shown) [Compound 104], the inhibition at 10 µM is 70.9%.

Take `CCn1c(C(C)NS(=O)(=O)c2cccc(F)c2)cnc1Oc1ccc(C)cc1` (stereo not shown) [Compound 105]: the inhibition at 10 µM was 84.2%.

As for `CCn1c(C(C)NS(=O)(=O)c2cc(Cl)ccc2OC)cnc1Oc1ccc(C)cc1` (stereo not shown) [Compound 107], the inhibition at 10 µM was 79.8%.

In the case of `CCn1c(C(C)NS(=O)(=O)c2c(C)cc(Cl)cc2Cl)cnc1Oc1ccc(C)cc1` (stereo not shown) [Compound 108], the inhibition at 10 µM stood at 81.3%.

Turning to `CCn1c(C(C)NS(=O)(=O)c2cc(F)c(F)cc2F)cnc1Oc1ccc(C)cc1` (stereo not shown) [Compound 109], the inhibition at 10 µM came out at 81.3%.

Consider `CCn1c(C(C)NS(=O)(=O)c2cc(Br)ccc2Br)cnc1Oc1ccc(C)cc1` (stereo not shown) [Compound 110], for which the inhibition at 10 µM amounted to 86.4%.

For `CCn1c(C(C)NS(=O)(=O)c2ccc(-c3ccno3)s2)cnc1Oc1ccc(C)cc1` (stereo not shown) [Compound 111], the inhibition at 10 µM is 59.6%.

In the case of `CCn1c(C(C)NS(=O)(=O)c2ccc(Br)cc2Br)cnc1Oc1ccc(C)cc1` (stereo not shown) [Compound 113], the inhibition at 10 µM came to 77.8%.

Turning to `CCn1c(C(C)NS(=O)(=O)c2ccc(F)c(C#N)c2)cnc1Oc1ccc(C)cc1` (stereo not shown) [Compound 114], the inhibition at 10 µM amounted to 96.8%.

As to `CCn1c(C(C)NS(=O)(=O)c2cc(C)cc(C)c2)cnc1Oc1ccc(C)cc1` (stereo not shown) [Compound 115], the inhibition at 10 µM amounted to 92.9%.

`CCn1c(C(C)NS(=O)(=O)c2ccc(OC(F)F)cc2)cnc1Oc1ccc(C)cc1` (stereo not shown) [Compound 116]: the inhibition at 10 µM is 78.2%.

Consider `CCn1c(C(C)NS(=O)(=O)c2cccc(OC(F)F)c2)cnc1Oc1ccc(C)cc1` (stereo not shown) [Compound 117], for which the inhibition at 10 µM was 87.3%.

Consider `CCn1c(C(C)NS(=O)(=O)c2c(F)cc(F)cc2Br)cnc1Oc1ccc(C)cc1` (stereo not shown) [Compound 118], for which the inhibition at 10 µM was found to be 62.5%.

In the case of `CCn1c(C(C)NS(=O)(=O)c2cc(F)cc(F)c2)cnc1Oc1ccc(C)cc1` (stereo not shown) [Compound 119], the inhibition at 10 µM amounted to 91.1%.

Consider `CCn1c(C(C)NS(=O)(=O)c2ccc(Cl)cc2F)cnc1Oc1ccc(C)cc1` (stereo not shown) [Compound 120], for which the inhibition at 10 µM stood at 81.2%.

`CCn1c(C(C)NS(=O)(=O)c2cc(F)c(F)c(F)c2)cnc1Oc1ccc(C)cc1` (stereo not shown) [Compound 121]: the inhibition at 10 µM turned out to be 101%.

As for `CCn1c(C(C)NS(=O)(=O)c2ccc(Br)c(C)c2)cnc1Oc1ccc(C)cc1` (stereo not shown) [Compound 122], the inhibition at 10 µM turned out to be 100%.

Consider `CCn1c(C(C)NS(=O)(=O)c2ccc(F)cc2Br)cnc1Oc1ccc(C)cc1` (stereo not shown) [Compound 123], for which the inhibition at 10 µM is 70.6%.

For `CCn1c(C(C)NS(=O)(=O)c2ccc(C(F)(F)F)cc2Br)cnc1Oc1ccc(C)cc1` (stereo not shown) [Compound 124], the inhibition at 10 µM is 65.6%.

`CCn1c(C(C)NS(=O)(=O)c2ccc(C)c(F)c2)cnc1Oc1ccc(C)cc1` (stereo not shown) [Compound 126]: the inhibition at 10 µM is 99.3%.

As for `CCn1c(C(C)NS(=O)(=O)c2ccc(F)cc2C)cnc1Oc1ccc(C)cc1` (stereo not shown) [Compound 127], the inhibition at 10 µM stood at 86.4%.

Regarding `CCn1c(C(C)NS(=O)(=O)c2cc(Cl)ccc2F)cnc1Oc1ccc(C)cc1` (stereo not shown) [Compound 128], the inhibition at 10 µM came to 65.6%.

Take `CCn1c(C(C)NS(=O)(=O)c2ccc(Br)c(F)c2)cnc1Oc1ccc(C)cc1` (stereo not shown) [Compound 129]: the inhibition at 10 µM amounted to 102%.

Turning to `CCn1c(C(C)NS(=O)(=O)c2ccc(Br)cc2Cl)cnc1Oc1ccc(C)cc1` (stereo not shown) [Compound 130], the inhibition at 10 µM came out at 77.5%.

On to `CCn1c(C(C)NS(=O)(=O)c2ccc(C)c(C)c2)cnc1Oc1ccc(C)cc1` (stereo not shown) [Compound 133], for which the inhibition at 10 µM amounted to 104%.

As for `CCn1c(C(C)NS(=O)(=O)c2cc(C)ccc2F)cnc1Oc1ccc(C)cc1` (stereo not shown) [Compound 134], the inhibition at 10 µM was 81%.

Consider `CCn1c(C(C)NS(=O)(=O)c2cccc(Cl)c2F)cnc1Oc1ccc(C)cc1` (stereo not shown) [Compound 135], for which the inhibition at 10 µM stood at 83.4%.

For the compound `CCn1c(C(C)NS(=O)(=O)c2cc(C)oc2C(F)(F)F)cnc1Oc1ccc(C)cc1` (stereo not shown) [Compound 143], the inhibition at 10 µM worked out at 58.8%.

As to `CCn1c(C(C)NS(=O)(=O)c2ccc3c(c2)OCCO3)cnc1Oc1ccc(C)cc1` (stereo not shown) [Compound 144], the inhibition at 10 µM is 94.1%.

Regarding `CCn1c(C(C)NS(=O)(=O)c2cccc3nsnc23)cnc1Oc1ccc(C)cc1` (stereo not shown) [Compound 146], the inhibition at 10 µM turned out to be 57.8%.

Take `CCn1c(C(C)NS(=O)(=O)c2ccc3nsnc3c2)cnc1Oc1ccc(C)cc1` (stereo not shown) [Compound 147]: the inhibition at 10 µM came out at 73.2%.

For the compound `CCn1c(C(C)NS(=O)(=O)c2ccc(C(F)(F)F)cc2Cl)cnc1Oc1ccc(C)cc1` (stereo not shown) [Compound 158], the inhibition at 10 µM amounted to 57%.

Take `CCn1c(C(C)NS(=O)(=O)c2cccc(C(C)=O)c2)cnc1Oc1ccc(C)cc1` (stereo not shown) [Compound 161]: the inhibition at 10 µM amounted to 71.2%.

For `CCn1c(C(C)NS(=O)(=O)c2ccc(F)c3ccccc23)cnc1Oc1ccc(C)cc1` (stereo not shown) [Compound 162], the inhibition at 10 µM came out at 70.2%.

In the case of `CCc1ccc(OC)c(S(=O)(=O)NC(C)c2cnc(Oc3ccc(C)cc3)n2CC)c1` (stereo not shown) [Compound 166], the inhibition at 10 µM is 80.7%.

Regarding `CCn1c(C(C)NS(=O)(=O)c2cccc3cnccc23)cnc1Oc1ccc(C)cc1` (stereo not shown) [Compound 169], the inhibition at 10 µM is 62%.

In the case of `CCn1c(C(C)NS(=O)(=O)c2ccc(Br)c(C(F)(F)F)c2)cnc1Oc1ccc(C)cc1` (stereo not shown) [Compound 172], the inhibition at 10 µM worked out at 75.9%.

As to `CCn1c(C(C)NS(=O)(=O)c2cc3ccccc3s2)cnc1Oc1ccc(C)cc1` (stereo not shown) [Compound 177], the inhibition at 10 µM is 77.7%.

Take `CCn1c(C(C)NS(=O)(=O)c2csc3ccccc23)cnc1Oc1ccc(C)cc1` (stereo not shown) [Compound 178]: the inhibition at 10 µM was 64.2%.

With `CCn1c(Oc2ccc(C)cc2)cnc1C(C)NS(=O)(=O)c1ccc(Cl)c(Cl)c1` (stereo not shown) [Compound 179, 3,4-Dichloro-N-[1-(1-ethyl-5-(4-methylphenoxy)-1H-imidazol-2-yl)-ethyl]-benzenesulfonamide], the inhibition at 10 µM was 95.9%.

As to `CCn1c(C(C)NS(=O)(=O)c2ccc(Cl)c(Cl)c2)cnc1Oc1cccc(N2CCN(C)CC2)c1` (stereo not shown) [Compound 184, 3,4-Dichloro-N-(1-{3-ethyl-2-[3-(4-methylpiperazin-1-yl)-phenoxy]-3H-imidazol-4-yl}-ethyl)-benzenesulfonamide], the inhibition at 10 µM was determined as 95.3%.

`CCn1c(C(C)NS(=O)(=O)c2ccc(Cl)c(Cl)c2)cnc1Oc1ccc(Cl)cc1` (stereo not shown) [Compound 189, 3,4-Dichloro-N-{1-[3-ethyl-2-(4-chlorophenoxy)-3H-imidazol-4-yl]-ethyl}-benzenesulfonamide]: the inhibition at 10 µM is 97.2%.

Staying with this test, now noted: membrane system binding test, various concentrations.
Broadly, the IC50 is the midpoint of a concentration-inhibition curve. For the compound `CCn1c(C(C)NS(=O)(=O)c2ccc(Cl)c(Cl)c2)cnc1Oc1cccc(N2CCN(C)CC2)c1` (stereo not shown) [Compound 184, 3,4-Dichloro-N-(1-{3-ethyl-2-[3-(4-methylpiperazin-1-yl)-phenoxy]-3H-imidazol-4-yl}-ethyl)-benzenesulfonamide], the IC50 is 14.3 nM.

Consider `CCn1c(C(C)NS(=O)(=O)c2ccc(Cl)c(Cl)c2)cnc1Oc1ccc(Cl)cc1` (stereo not shown) [Compound 189, 3,4-Dichloro-N-{1-[3-ethyl-2-(4-chlorophenoxy)-3H-imidazol-4-yl]-ethyl}-benzenesulfonamide], for which the IC50 was no more than 70 nM.

The same test, now with this note: read-out: Binding test (membrane) % inhibition (10 μM).
For the compound `CCn1c(C(C)NS(=O)(=O)c2ccc(F)cc2Cl)cnc1Oc1ccc(C)cc1` (stereo not shown) [Compound 82], the inhibition at 10 µM came to 64.2%.
